Assay results published in ChEMBL document CHEMBL5370591, “A Potent and Narrow-Spectrum Antibacterial against Clostridioides difficile Infection” (J Med Chem, 2023).
≈ marks a conversion by molar mass, not a printed value. Calls of active or inactive are those of the source. The rule behind the calls is not given here.

What was measured:
Lactobacillus gasseri = assay: Antibacterial activity against Lactobacillus gasseri HM-644 assessed as inhibition of bacterial growth measured after 48 hrs by two fold serial dilution method; type: functional
Clostridioides difficile [1] = assay: Antibacterial activity against Clostridium difficile ATCC 43255 assessed as damage in cell wall at 8 time MIC incubated for 24 hrs by scanning electron microscopy based analysis; type: functional, organism-based
[2] = tested on: Staphylococcus haemolyticus; assay: Antibacterial activity against Staphylococcus haemolyticus ATCC 29970 assessed as inhibition of bacterial growth measured after 48 hrs by two fold serial dilution method; type: functional
Corynebacterium sp. = assay: Antibacterial activity against Corynebacterium sp. HM-784 assessed as inhibition of bacterial growth measured after 48 hrs by two fold serial dilution method; type: functional
THP-1 = assay: Cytotoxicity against human THP-1 cells assessed as increase in LDH release incubate for 24 hrs by trypan-blue staining based analysis; type: functional, cell-based; conditions: THP-1, 24 h
Clostridioides difficile [3] = assay: Antibacterial activity against Clostridium difficile ATCC 43255 assessed as as time duration of post-antibiotic effect for suppression of bacterial growth at 4 times MIC incubated for 1 hr in broth solution; type: functional
Bacteroides fragilis = assay: Antibacterial activity against Bacteroides fragilis HM-709 assessed as inhibition of bacterial growth measured after 48 hrs by two fold serial dilution method; type: functional
[4] = Selectivity ratio of MBC for bactericidal activity against Clostridium difficile ATCC 43255 to MIC for antibacterial activity for Clostridium difficile ATCC 43255; type: functional, Clostridioides difficile
Clostridioides difficile [5] = assay: Antibacterial activity against Clostridium difficile NR49305 isolated from human feces assessed as inhibition of bacterial growth measured after 48 hrs by two fold serial dilution method; type: functional
Clostridioides difficile [6] = assay: Induction of resistance against Clostridium difficile ATCC 43255 assessed as fold increase in MIC measured after 20 passages under anaerobic conditions; type: functional
Clostridioides difficile [7] = assay: Antibacterial activity against Clostridium difficile NR49310 isolated from human feces assessed as inhibition of bacterial growth measured after 48 hrs by two fold serial dilution method; type: functional
Acinetobacter baumannii = assay: Antibacterial activity against Acinetobacter baumannii ATCC17961 assessed as inhibition of bacterial growth measured after 48 hrs by two fold serial dilution method; type: functional
Klebsiella pneumoniae = assay: Antibacterial activity against Klebsiella pneumoniae ATCC700603 assessed as inhibition of bacterial growth measured after 48 hrs by two fold serial dilution method; type: functional
Clostridioides difficile [8] = assay: Antibacterial activity against Clostridium difficile ATCC 43255 measured after 48 hrs by two fold serial dilution method; type: functional
Clostridioides difficile [9] = assay: Bactericidal activity against Clostridium difficile ATCC 43255 incubated for 48 hrs under anaerobic conditions; type: functional
[10] = Selectivity ratio of IC50 for human THP-1 cells to MIC for Clostridium difficile ATCC 43255; type: toxicity
Clostridioides difficile [11] = assay: Antibacterial activity against Clostridium difficile BAA-1803 clinical isolate assessed as inhibition of bacterial growth measured after 48 hrs by two fold serial dilution method; type: functional
Clostridioides difficile [12] = assay: Antibacterial activity against Clostridium difficile 24531 clinical isolate assessed as inhibition of bacterial growth measured after 48 hrs by two fold serial dilution method; type: functional
Clostridioides difficile [13] = assay: Antibacterial activity against Clostridium difficile 26675 clinical isolate assessed as inhibition of bacterial growth measured after 48 hrs by two fold serial dilution method; type: functional
Clostridioides difficile [14] = assay: Antibacterial activity against Clostridium difficile BAA-1870 assessed as inhibition of bacterial growth measured after 48 hrs by two fold serial dilution method; type: functional
Clostridioides difficile [15] = assay: Antibacterial activity against Clostridium difficile 23828 clinical isolate assessed as inhibition of bacterial growth measured after 48 hrs by two fold serial dilution method; type: functional
Enterococcus faecium [16] = assay: Antibacterial activity against vancomycin susceptible Enterococcus faecium119-39A clinical isolate assessed as inhibition of bacterial growth measured after 48 hrs by two fold serial dilution method; type: functional; conditions: 119-39A
Clostridioides difficile [17] = assay: Antibacterial activity against Clostridium difficile NR49318 isolated from human feces assessed as inhibition of bacterial growth measured after 48 hrs by two fold serial dilution method; type: functional
Clostridioides difficile [18] = assay: Antibacterial activity against Clostridium difficile NR49302 isolated from human feces assessed as inhibition of bacterial growth measured after 48 hrs by two fold serial dilution method; type: functional
Clostridioides difficile [19] = assay: Antibacterial activity against Clostridium difficile NR49294 isolated from human feces assessed as inhibition of bacterial growth measured after 48 hrs by two fold serial dilution method; type: functional
Enterococcus faecalis = assay: Antibacterial activity against vancomycin resistant Enterococcus faecalis 99 clinical isolate assessed as inhibition of bacterial growth measured after 48 hrs by two fold serial dilution method; type: functional
Streptococcus pyogenes = assay: Antibacterial activity against Streptococcus pyogenes ATCC 49399 assessed as inhibition of bacterial growth measured after 48 hrs by two fold serial dilution method; type: functional
[20] = Selectivity ratio of IC50 for human HepG2 cells to MIC for Clostridium difficile ATCC 43255; type: toxicity
Clostridioides difficile [21] = assay: Antibacterial activity against Clostridium difficile ATCC 43255 assessed as as time duration of post-antibiotic effect for suppression of bacterial growth at 8 times MIC incubated for 1 hr in broth solution; type: functional
[22] = tested on: Limosilactobacillus reuteri; assay: Antibacterial activity against Lactobacillus reuteri HM-102 assessed as inhibition of bacterial growth measured after 48 hrs by two fold serial dilution method; type: functional
Klebsiella aerogenes = assay: Antibacterial activity against Klebsiella aerogenes ATCC35029 assessed as inhibition of bacterial growth measured after 48 hrs by two fold serial dilution method; type: functional
Escherichia coli = assay: Antibacterial activity against Escherichia coli ATCC25922 assessed as inhibition of bacterial growth measured after 48 hrs by two fold serial dilution method; type: functional
Staphylococcus aureus [23] = assay: Antibacterial activity against ciprofloxacin/gentamicin/oxacillin/pencillin/linezolid resistant Staphylococcus aureus NRS119 assessed as inhibition of bacterial growth measured after 48 hrs by two fold serial dilution method; type: functional
Pseudomonas aeruginosa = assay: Antibacterial activity against Pseudomonas aeruginosa ATCC27853 assessed as inhibition of bacterial growth measured after 48 hrs by two fold serial dilution method; type: functional
Clostridioides difficile [24] = assay: Antibacterial activity against Clostridium difficile ATCC 43255 isolated from abdominal wound assessed as inhibition of bacterial growth measured after 48 hrs by two fold serial dilution method; type: functional
Clostridioides difficile [25] = assay: Antibacterial activity against Clostridium difficile ATCC 43255 assessed as log reduction in bacterial growth at 1 to 8 times MIC measured upto 48 hrs under anaerobic condition; type: functional
HepG2 = assay: Antiproliferative activity against human HepG2 cells assessed as inhibition of cell growth by XTT assay; type: functional, cell-based
Clostridioides difficile [26] = assay: Antibacterial activity against Clostridium difficile ATCC 43255 assessed as as time duration of post-antibiotic effect for suppression of bacterial growth at 2 times MIC incubated for 1 hr in broth solution; type: functional
Clostridioides difficile [27] = assay: Antibacterial activity against Clostridium difficile NR49292 assessed as inhibition of bacterial growth measured after 48 hrs by two fold serial dilution method; type: functional
Eubacterium sp. = assay: Antibacterial activity against Eubacterium sp. HM-178 assessed as inhibition of bacterial growth measured after 48 hrs by two fold serial dilution method; type: functional
Clostridioides difficile [28] = assay: Induction of resistance against Clostridium difficile ATCC 43255 assessed as fold increase in MIC measured after 8 passages under anaerobic conditions; type: functional
Clostridioides difficile [29] = assay: Induction of resistance against Clostridium difficile ATCC 43255 assessed as fold increase in MIC measured after 14 passages under anaerobic conditions; type: functional
Staphylococcus aureus [30] = assay: Antibacterial activity against methicillin/oxacillin/tetracycline resistant vancomycin resistant Staphylococcus aureus NRS100 assessed as inhibition of bacterial growth measured after 48 hrs by two fold serial dilution method; type: functional
Enterococcus faecium [31] = assay: Antibacterial activity against vancomycin resistant Enterococcus faecium 106 clinical isolate assessed as inhibition of bacterial growth measured after 48 hrs by two fold serial dilution method; type: functional
Clostridioides difficile [32] = assay: Antibacterial activity against Clostridium difficile ATCC 43255 assessed as as time duration of post-antibiotic effect for suppression of bacterial growth at 1 time MIC incubated for 1 hr in broth solution; type: functional

O=[N+]([O-])c1c[nH]c(-c2nc(-c3ccc(OC4CCCC4)cc3)no2)n1
MIC (Lactobacillus gasseri): > 128 µg/mL | Activity (Clostridioides difficile [1]): Active | MIC [2]: 32 µg/mL (≈ 93.8 µM) | MIC (Corynebacterium sp.): > 128 µg/mL | IC50 (THP-1): > 128 µg/mL | Time (Clostridioides difficile [3]): 7 h | MIC (Bacteroides fragilis): 128 µg/mL (≈ 375 µM) | Ratio [4]: 2 | MIC (Clostridioides difficile [5]): 0.125 µg/mL (≈ 0.366 µM) | fold change (FC) (Clostridioides difficile [6]): 8 | MIC (Clostridioides difficile [7]): 0.25 µg/mL (≈ 0.732 µM) | MIC (Acinetobacter baumannii): > 128 µg/mL | MIC (Klebsiella pneumoniae): > 128 µg/mL | MIC (Clostridioides difficile [8]): 0.25 µg/mL (≈ 0.732 µM) | MBC (Clostridioides difficile [9]): 0.5 µg/mL (≈ 1.46 µM) | selectivity ratio [10]: > 512 | MIC (Clostridioides difficile [11]): 0.125 µg/mL (≈ 0.366 µM) | MIC (Clostridioides difficile [12]): 0.125 µg/mL (≈ 0.366 µM) | MIC (Clostridioides difficile [13]): 2 µg/mL (≈ 5.86 µM) | MIC (Clostridioides difficile [14]): 0.125 µg/mL (≈ 0.366 µM) | MIC (Clostridioides difficile [15]): 1 µg/mL (≈ 2.93 µM) | MIC (Enterococcus faecium [16]): 128 µg/mL (≈ 375 µM) | MIC (Clostridioides difficile [17]): 0.5 µg/mL (≈ 1.46 µM) | MIC (Clostridioides difficile [18]): 0.25 µg/mL (≈ 0.732 µM) | MIC (Clostridioides difficile [19]): 0.5 µg/mL (≈ 1.46 µM) | MIC (Enterococcus faecalis): 128 µg/mL (≈ 375 µM) | MIC (Streptococcus pyogenes): > 128 µg/mL | selectivity ratio [20]: 214 | Time (Clostridioides difficile [21]): 7 h | MIC [22]: > 128 µg/mL | MIC (Klebsiella aerogenes): > 128 µg/mL | MIC (Escherichia coli): > 128 µg/mL | MIC (Staphylococcus aureus [23]): 32 µg/mL (≈ 93.8 µM) | MIC (Pseudomonas aeruginosa): > 128 µg/mL | MIC (Clostridioides difficile [24]): 0.25 µg/mL (≈ 0.732 µM) | Activity (Clostridioides difficile [25]): 4 log10CFU/ml | IC50 (HepG2): 53.4 µg/mL (≈ 156 µM) | Time (Clostridioides difficile [26]): 5 h | MIC (Clostridioides difficile [27]): 0.125 µg/mL (≈ 0.366 µM) | MIC (Eubacterium sp.): 64 µg/mL (≈ 188 µM) | fold change (FC) (Clostridioides difficile [28]): 2 | fold change (FC) (Clostridioides difficile [29]): 4 | MIC (Staphylococcus aureus [30]): 64 µg/mL (≈ 188 µM) | MIC (Enterococcus faecium [31]): 128 µg/mL (≈ 375 µM) | Time (Clostridioides difficile [32]): 3 h
